Laboratory results taken from patent publication US9174973B2, “Crystalline forms of azilsartan and preparation and uses thereof” (SUNSHINE LAKE PHARMA CO., LTD., priority 2011, dated 2015).

Legend:
[1] = Light Stability of crystalline form A; type: physicochemical; details: light 4500+/−500 Lux
Description: A layer of crystalline form A having a thickness of less than 5 mm was place in a flat weighing bottle. […] Samples were taken out at 6 days, 11 days and 16 days and examined for purity by HPLC, appearance and crystalline form. The conditions for the HPLC measurements are as shown below. • Instrument: Agilent 1200HPLC • Column: Agilent Eclipse XDB-C18 4.6*150 mm, 5 μm • Detection wavelength: 254 nm • Mobile phase: A phase 10 mM ammonium acetate (pH=3.5) and B phase acetonitrile [table]

[2] = Humidity Stability of crystalline form A; type: physicochemical; details: 25° C., RH 90%+/−5%
Description: A layer of crystalline form A having a thickness of less than 5 mm was place in a flat weighing bottle. […] The conditions for the HPLC measurements are as shown below. • Instrument: Agilent 1200HPLC • Column: Agilent Eclipse XDB-C18 4.6*150 mm, 5 μm • Detection wavelength: 254 nm • Mobile phase: A phase 10 mM ammonium acetate (pH=3.5) and B phase acetonitrile [table]

RT* (min.) 30.66 (HPLC peak) ([1]; 6 days): 0.02% | Appearance ([1]; 11 days): Light yellow | Crystalline form ([1]; 11 days): Form A | RT* (min.) 2.39 (HPLC peak) ([1]; 11 days): 0.04% | RT* (min.) 2.89 (HPLC peak) ([1]; 11 days): 0.14% | RT* (min.) 3.9 (HPLC peak) ([1]; 11 days): 0.61% | RT* (min.) 5.79 (HPLC peak) ([1]; 11 days): 0.02 | RT* (min.) 13.2 (azilsartan peak, purity by HPLC) ([1]; 11 days): 98.71% | RT* (min.) 20.55 (HPLC peak) ([1]; 11 days): 0.07% | RT* (min.) 22.8 (HPLC peak) ([1]; 11 days): 0.06% | RT* (min.) 23.6 (HPLC peak) ([1]; 11 days): 0.03% | RT* (min.) 26.96 (HPLC peak) ([1]; 11 days): 0.01% | RT* (min.) 27.5 (HPLC peak) ([1]; 11 days): 0.29% | RT* (min.) 28.81 (HPLC peak) ([1]; 11 days): 0.01% | RT* (min.) 30.66 (HPLC peak) ([1]; 11 days): 0.03% | Appearance ([1]; 16 days): Light yellow | Crystalline form ([1]; 16 days): Form A | RT* (min.) 2.39 (HPLC peak) ([1]; 16 days): 0.05% | RT* (min.) 2.89 (HPLC peak) ([1]; 16 days): 0.22% | RT* (min.) 3.9 (HPLC peak) ([1]; 16 days): 0.34% | RT* (min.) 13.2 (azilsartan peak, purity by HPLC) ([1]; 16 days): 99.24% | RT* (min.) 22.8 (HPLC peak) ([1]; 16 days): 0.04% | RT* (min.) 23.6 (HPLC peak) ([1]; 16 days): 0.01% | RT* (min.) 27.5 (HPLC peak) ([1]; 16 days): 0.09% | Appearance ([2]; 6 days): White or off- | Crystalline form ([2]; 6 days): Form A | RT* (min.) 2.89 (HPLC peak) ([2]; 6 days): 0.02% | RT* (min.) 3.9 (HPLC peak) ([2]; 6 days): 0.31% | RT* (min.) 5.79 (HPLC peak) ([2]; 6 days): 0.01 | RT* (min.) 13.2 (azilsartan peak, purity by HPLC) ([2]; 6 days): 99.48% | RT* (min.) 22.8 (HPLC peak) ([2]; 6 days): 0.05% | RT* (min.) 23.6 (HPLC peak) ([2]; 6 days): 0.02% | RT* (min.) 27.5 (HPLC peak) ([2]; 6 days): 0.07% | RT* (min.) 30.66 (HPLC peak) ([2]; 6 days): 0.03% | Appearance ([2]; 11 days): White or off- | Crystalline form ([2]; 11 days): Form A | RT* (min.) 2.89 (HPLC peak) ([2]; 11 days): 0.02% | RT* (min.) 3.9 (HPLC peak) ([2]; 11 days): 0.33% | RT* (min.) 13.2 (azilsartan peak, purity by HPLC) ([2]; 11 days): 99.51% | RT* (min.) 22.8 (HPLC peak) ([2]; 11 days): 0.04% | RT* (min.) 23.6 (HPLC peak) ([2]; 11 days): 0.02% | RT* (min.) 27.5 (HPLC peak) ([2]; 11 days): 0.06% | RT* (min.) 30.66 (HPLC peak) ([2]; 11 days): 0.03% | Appearance ([2]; 16 days): White or off- | Crystalline form ([2]; 16 days): Form A | RT* (min.) 2.89 (HPLC peak) ([2]; 16 days): 0.01% | RT* (min.) 3.9 (HPLC peak) ([2]; 16 days): 0.32% | RT* (min.) 13.2 (azilsartan peak, purity by HPLC) ([2]; 16 days): 99.52% | RT* (min.) 22.8 (HPLC peak) ([2]; 16 days): 0.04% | RT* (min.) 23.6 (HPLC peak) ([2]; 16 days): 0.01% | RT* (min.) 27.5 (HPLC peak) ([2]; 16 days): 0.05% | RT* (min.) 30.66 (HPLC peak) ([2]; 16 days): 0.02%
SMILES: CCOc1nc2cccc(C(=O)O)c2n1Cc1ccc(-c2ccccc2-c2noc(=O)[nH]2)cc1 [Form A]
RT* (min.) 5.79 (HPLC peak) ([1]; 16 days): — (“—” refers to the peak area is less than 3000 or there is no peak) | RT* (min.) 20.55 (HPLC peak) ([1]; 16 days): — (“—” refers to the peak area is less than 3000 or there is no peak) | RT* (min.) 26.96 (HPLC peak) ([1]; 16 days): — (“—” refers to the peak area is less than 3000 or there is no peak) | RT* (min.) 28.81 (HPLC peak) ([1]; 16 days): — (“—” refers to the peak area is less than 3000 or there is no peak) | RT* (min.) 30.66 (HPLC peak) ([1]; 16 days): — (“—” refers to the peak area is less than 3000 or there is no peak) | RT* (min.) 2.39 (HPLC peak) ([2]; 6 days): — (“—” refers to the peak area is less than 3000 or there is no peak) | RT* (min.) 20.55 (HPLC peak) ([2]; 6 days): — (“—” refers to the peak area is less than 3000 or there is no peak) | RT* (min.) 26.96 (HPLC peak) ([2]; 6 days): — (“—” refers to the peak area is less than 3000 or there is no peak) | RT* (min.) 28.81 (HPLC peak) ([2]; 6 days): — (“—” refers to the peak area is less than 3000 or there is no peak) | RT* (min.) 2.39 (HPLC peak) ([2]; 11 days): — (“—” refers to the peak area is less than 3000 or there is no peak) | RT* (min.) 5.79 (HPLC peak) ([2]; 11 days): — (“—” refers to the peak area is less than 3000 or there is no peak) | RT* (min.) 20.55 (HPLC peak) ([2]; 11 days): — (“—” refers to the peak area is less than 3000 or there is no peak) | RT* (min.) 26.96 (HPLC peak) ([2]; 11 days): — (“—” refers to the peak area is less than 3000 or there is no peak) | RT* (min.) 28.81 (HPLC peak) ([2]; 11 days): — (“—” refers to the peak area is less than 3000 or there is no peak) | RT* (min.) 2.39 (HPLC peak) ([2]; 16 days): — (“—” refers to the peak area is less than 3000 or there is no peak) | RT* (min.) 5.79 (HPLC peak) ([2]; 16 days): — (“—” refers to the peak area is less than 3000 or there is no peak) | RT* (min.) 20.55 (HPLC peak) ([2]; 16 days): — (“—” refers to the peak area is less than 3000 or there is no peak) | RT* (min.) 26.96 (HPLC peak) ([2]; 16 days): — (“—” refers to the peak area is less than 3000 or there is no peak) | RT* (min.) 28.81 (HPLC peak) ([2]; 16 days): — (“—” refers to the peak area is less than 3000 or there is no peak)
